This note sets out measurements from a melting point compilation (Tetko et al.; mined from patent text by program, amines drawn as free bases though some values may be those of a salt).

Usually melting point stands for the temperature of the solid-liquid transition.

In turn, `CCCCc1nc(Cl)c(CO)n1Cc1ccc(-c2nc3ccccn3c2C(=O)O)cc1` yielded a melting point of 173 to 175 °C.
Next, `CCOC(=O)CCN1CCC[C@H](NCc2ccccc2OC)[C@@H]1c1ccccc1` (relative stereo): 110 to 112 °C; `CCC1=Nc2ccccc2CC(c2ccc(C)s2)N1C` (stereo unspecified): 66 °C.
For the compound `COc1ccc(Nc2ncc3ccc(=O)n(C4CCCC4)c3n2)cn1`, the melting point is 181 to 182 °C.
Next, `N#Cc1cc(C2=Nc3cc(O)c(-c4ccc(F)cc4)cc3NC(=O)C2)ccn1`: 164 °C; `Cc1ccc(N(c2ccc(C)cc2)c2ccc(C(O)(CCCO)CCCO)cc2)cc1`: 131 to 132 °C.
The figure for `O=C(CC1CCCCC1)Nc1c(Cl)ccc2nc(NC[C@@H](O)CO)ccc12` is 155 to 159 °C; for `O=C(Nn1cnnc1)C1=NN(c2ccc(Cl)cc2Cl)C(c2ccc(Cl)cc2)C1` (stereo unspecified) it is 134 to 138 °C; for `CN(C)c1ccc2sc(S(N)(=O)=O)cc2c1` it is 197 to 199 °C.
Next, `COC(=O)C(C)Oc1ccc(NC(=O)CCCCCOCc2ccccc2)cc1` (stereo unspecified): 73 to 76.5 °C; `N#CCCNC(=O)c1cccc(-c2ccc3c(c2)N(CCc2ccc(Cl)cc2Cl)CC3)c1`: 147 to 149 °C.
For `COC(=O)C(CCCCNC(=O)OCc1ccccc1)NC(=O)CCC(C)C1CCC2C3C(O)CC4CC(O)CCC4(C)C3CC(O)C12C` (stereo unspecified), the melting point lay within 80 to 83 °C.
The figure for `O=C1C(=Cc2ccco2)CCc2cc(OCCn3ccnc3)ccc21` is 109 to 110 °C; for `CCn1c(=O)ccc2cnc(S(C)=O)nc21` (stereo unspecified) it is 202 to 203 °C.
In turn, `CC1=Nc2cc(Cl)c(S)cc2S(=O)(=O)N1` had a melting point of 304 to 305 °C.
`CCCCN1C(C)=C(C(=O)OCC)C(c2cc([N+](=O)[O-])ccc2OCC(=O)OCC)C(C(=O)OCC)=C1C` returned a melting point of 88 to 90 °C.
The figure for `CCn1c(C)nc2cc(C(F)(F)F)c(N(C)C)c(N)c21` is 141 to 142 °C; for `COc1ccc(COc2ccc(C(=O)O)cc2OCc2ccc(OC)cc2)cc1` it is 171 to 172 °C; for `Nc1ccc(-c2c(Cc3ccccc3)sc3ncnc(N)c23)cc1` it is 208 to 210 °C.
With `COCCCn1c(CO)c(Cl)c2c3c(c(-c4ccccc4Cl)cc21)C(=O)NC3=O`, the melting point was in the range of 214 to 215 °C.
The figure for `O=[N+]([O-])c1ccc2c(c1)N[C@@H]1c3cc([N+](=O)[O-])ccc3C[C@H]21` (relative stereo) is 174 to 176 °C; for `O=[N+]([O-])c1cccc(Nc2nccc(-c3cccnc3)n2)c1` it is 212 to 213 °C.
Next, `COc1ccc(Cc2n[nH]c(=O)c3ccccc23)cc1N`: 212 to 214 °C; `COC(=O)C1=CN(c2ccc(O)cc2)C(C2CC=CCC2)CC1=O` (stereo unspecified): 155 to 157 °C.
The figure for `NCCOc1nc2ccccc2n1C1CCN(C2(c3ccccc3)CCCCCC2)CC1` is 180 to 184 °C; for `CC(=O)N[C@@H](CSc1ccccc1[N+](=O)[O-])C(=O)O` it is 175 to 176 °C; for `O=C(O)c1nc(C2CC2)nc(Cl)c1Cl` it is 126 to 127 °C.
In turn, `Clc1cccc(Cc2ccc(OCCCn3cccn3)c(Cl)c2)c1` showed a melting point of 52.5 °C.
The figure for `CC(C)(C)c1cc(Cc2ccc(Cl)nn2)c(O)c(C(C)(C)C)c1` is 143 to 144 °C; for `CSc1ccc(C)cc1[N+](=O)[O-]` it is 71 to 73 °C.
The figure for `O=S(=O)(Nc1nnc(Cl)cc1OCc1cccnc1)c1cccc(Cl)c1Cl` is 216 to 217 °C.
Next, `COC(=O)CCCCNC(=NC(=O)OCc1ccccc1)NC(=O)OCc1ccccc1`: 36 to 39 °C; `O=CN(O)C(Cc1cccc(CC(=O)O)c1)CS(=O)(=O)c1ccc(Oc2ccc(OC(F)(F)F)cc2)cc1` (stereo unspecified): 138 to 140 °C; `CCCOc1ccc(CCC(=O)N2CCN(C)CC2)cc1-c1nc2c(C)cccc2c(=O)[nH]1`: 184 to 185 °C.
In turn, `CCCCCS(=O)(=O)NC(=O)CCc1cc(C(C)C)nn1Cc1ccc(C(F)(F)F)cc1Cl` had a melting point of 144 to 145 °C.
Next, `CCCN(CC(=O)Nc1c(OC)nc(C)nc1OC)c1ccccc1`: 173 to 174 °C.
Next, `O=C1N(Cc2c[nH]c3ccccc23)CCCC12CCN(c1cnc3ccccc3n1)CC2`: 109 to 111 °C; `CN(C)C1(c2ccccc2)CCC(CNC(=O)NCCc2c[nH]c3ccc(F)cc23)CC1` (stereo unspecified): 70 to 73 °C.
The figure for `Cc1cccc(C(=O)O)c1NC(=O)COc1ccccc1` is 174 to 176 °C; for `CC(C)N1CCC(CNc2ccc(Cl)cc2C(=O)Nc2ccc(F)cn2)CC1` it is 72 to 74 °C.
`CCOC(=O)c1c(C)nc(-c2ccccc2)nc1-c1cc([N+](=O)[O-])ccc1SC` showed a melting point of 125 to 126 °C.
Next, `C=C(Br)Cc1cccs1`: 69 to 71 °C; `CCOC(=O)C1=C(C#N)Nc2nccn2C1c1cccc([N+](=O)[O-])c1` (stereo unspecified): 260 to 261 °C.
Next, `O=C(CC1CC1)Nc1c(C(=O)c2ccccc2)[nH]c2cc(Cl)ccc12`: 72 to 75 °C; `COc1ccc(C(=O)O)c(-c2ccc(C(F)(F)F)cc2)c1`: 232 to 234 °C.
Next, `CCn1cc(C(=O)NCc2ccc(Cl)cc2)c(=O)c2cc(I)sc21`: 214 to 218 °C; `COCC(=O)OC1(C(=O)COC(=O)C(C)C)CCC2C3CC(C)C4=CC(=O)C=CC4(C)C3C(O)CC21C` (stereo unspecified): 148 to 150 °C; `O=C1Nc2ccc(Cl)cc2N2CCNCC12` (stereo unspecified): 300 to 303 °C.
For the compound `OCC1OC(n2c(Cl)nc3cc(Br)ccc32)C(O)C1O` (stereo unspecified), the melting point was in the range of 154 to 155 °C.
The figure for `c1cc(-c2ccn3cnnc3c2)ccn1` is 194 to 196 °C; for `Cc1c(NC(=O)c2ccc(-c3ccc(F)cc3F)cc2F)ccc2cc(CN3CCCC3)cnc12` it is 172 to 173 °C.
Next, `COc1cc(F)ccc1-c1ccc(S(=O)(=O)N2c3ccccc3CC2C(=O)O)cc1` (stereo unspecified): 93 to 100 °C; `Cc1cc(C)cc(-n2ncc(-c3ccc(S(C)(=O)=O)cc3)c(-c3ccc(F)cc3)c2=O)c1`: 130 to 134 °C.
Next, `Cc1nnc2n1-c1ccc(Cl)cc1C(c1ccccc1F)=CC2`: 223 to 225 °C; `c1ccc(-c2nnc(-c3ccccn3)o2)cc1`: 127 to 128 °C.
`CCCCCCCCOC(=S)c1cc(C(C)(C)C)c(OC(=O)c2cc(C(C)(C)C)c(O)c(C(C)(C)C)c2)c(C(C)(C)C)c1` came in with a melting point of 129 to 132 °C.
The compound `CCOC(=O)C(=CNc1cnnn1C)C(=O)c1cc(F)c(Cl)nc1Cl` yielded a melting point of 187 to 189 °C.
Next, `COc1ccc(Cc2cc(OC)c(OC)c(OC)c2)cc1`: 66 to 67 °C.
Next, `NC(=O)N(O)CC#Cc1ccc(F)c(C2=N[C@H](c3ccccc3)CO2)c1`: 173 to 174 °C; `Cn1cc(-c2cccc(I)c2)c(=O)c(-c2cccc(C(F)(F)F)c2)c1`: 178 to 181 °C.
Compound `CCN(CC)C(=O)c1c(C)cccc1Cl` displayed a melting point of 48 to 49 °C.
